# What was measured:
# [1] = Octanol-water partition coefficient, log P of the compound; assay type: physicochemical
# Staphylococcus aureus [2] = test: Antibacterial activity against Staphylococcus aureus ATCC 4163 after 18 hrs by serial microdilution method; assay type: functional; conditions: ATCC 4163, 18 h
# Candida albicans = test: Antifungal activity against Candida albicans ATCC 10231 after 18 hrs by serial microdilution method; assay type: functional; conditions: ATCC 10231, 18 h
# Staphylococcus aureus [3] = test: Antibacterial activity against Staphylococcus aureus ATCC 25923 after 18 hrs by serial microdilution method; assay type: functional; conditions: ATCC 25923, 18 h
# [4] = test system: Staphylococcus epidermidis; test: Antibacterial activity against Staphylococcus epidermidis ATCC 12228 after 18 hrs by serial microdilution method; assay type: functional; conditions: ATCC 12228, 18 h
# Trichophyton rubrum = test: Antifungal activity against Trichophyton rubrum ATCC 28188 after 18 hrs by serial microdilution method; assay type: functional; conditions: ATCC 28188, 18 h
# [5] = Solubility in water at pH 7 and 25 degC by UV-vis spectrophotometry; assay type: physicochemical
# [6] = test system: Staphylococcus epidermidis; test: Antibacterial activity against Staphylococcus epidermidis ATCC 49134 after 18 hrs by serial microdilution method; assay type: functional; conditions: ATCC 49134, 18 h
# Escherichia coli = test: Antibacterial activity against Escherichia coli ATCC 10538 after 18 hrs by serial microdilution method; assay type: functional; conditions: ATCC 10538, 18 h
# Staphylococcus aureus [7] = test: Antibacterial activity against Staphylococcus aureus ATCC 6538 after 18 hrs by serial microdilution method; assay type: functional; conditions: ATCC 6538, 18 h
# [8] = test system: Salmonella enterica subsp. enterica serovar Abony; test: Antibacterial activity against Salmonella abony NCTC 6017 after 18 hrs by serial microdilution method; assay type: functional; conditions: NCTC 6017, 18 h
# [9] = test system: Mycobacterium tuberculosis; test: Antituberculosis activity against Mycobacterium tuberculosis H37Rv after 7 days by serial two fold dilution method; assay type: functional; conditions: 168 h
# Enterococcus faecalis = test: Antibacterial activity against Enterococcus faecalis ATCC 19433 after 18 hrs by serial microdilution method; assay type: functional; conditions: ATCC 19433, 18 h
Compound,logP [1],MIC (Staphylococcus aureus [2]) [µg/mL],MIC (Candida albicans) [µg/mL],MIC (Staphylococcus aureus [3]) [µg/mL],MIC [4] [µg/mL],MIC (Trichophyton rubrum) [µg/mL],solubility [5] [µg/mL],MIC [6] [µg/mL],MIC (Escherichia coli) [µg/mL],MIC (Staphylococcus aureus [7]) [µg/mL],MIC [8] [µg/mL],MIC [9] [µg/mL],MIC (Enterococcus faecalis) [µg/mL]
CO[C@H]1/C=C/O[C@@]2(C)Oc3c(C)c(O)c4c(O)c(c(CNC5CCN(Cc6ccccc6)CC5)c(O)c4c3C2=O)NC(=O)/C(C)=C\C=C\[C@H](C)[C@H](O)[C@@H](C)[C@@H](O)[C@@H](C)[C@H](OC(C)=O)[C@@H]1C,3.25,0.25,> 1,0.25,0.25,> 1,< 10,0.25,> 1,0.25,> 1,0.005,> 1
CO[C@H]1/C=C/O[C@@]2(C)Oc3c(C)c(O)c4c(O)c(c(CNCCCN5CCCC5)c(O)c4c3C2=O)NC(=O)/C(C)=C\C=C\[C@H](C)[C@H](O)[C@@H](C)[C@@H](O)[C@@H](C)[C@H](OC(C)=O)[C@@H]1C,2.04,0.5,> 1,1,0.5,> 1,240,0.25,> 1,0.5,> 1,0.5,> 1
CO[C@H]1/C=C\O[C@@]2(C)Oc3c(C)c(O)c4c(O)c(c(CNC5CCN(Cc6ccccc6)CC5)c(O)c4c3C2=O)NC(=O)/C(C)=C\C=C/[C@H](C)[C@H](O)[C@@H](C)[C@@H](O)[C@@H](C)[C@H](OC(C)=O)[C@@H]1C,2.05,0.125,–,0.25,0.06,–,150,0.03,–,0.125,–,0.005,–
CCCCCc1cn(CCCN2Cc3c4c(O)c5c(O)c(C)c6c(c5c3O)C(=O)[C@@](C)(O/C=C/[C@H](OC)[C@@H](C)[C@@H](OC(C)=O)[C@H](C)[C@H](O)[C@H](C)[C@@H](O)[C@@H](C)/C=C/C=C(/C)C2=N4)O6)nn1,4.47,1,> 1,> 1,> 1,> 1,< 10,> 1,> 1,> 1,> 1,1,> 1
CO[C@H]1/C=C/O[C@@]2(C)Oc3c(C)c(O)c4c(O)c5c(c(O)c4c3C2=O)CN(Cc2cn(CN3C(=O)c4ccccc4C3=O)nn2)C(=N5)/C(C)=C\C=C\[C@H](C)[C@H](O)[C@@H](C)[C@@H](O)[C@@H](C)[C@H](OC(C)=O)[C@@H]1C,3.26,1,> 1,> 1,> 1,> 1,< 10,> 1,> 1,> 1,> 1,0.5,> 1
CO[C@H]1/C=C/O[C@@]2(C)Oc3c(C)c(O)c4c(O)c(c(/C=N/N5CCN(C)CC5)c(O)c4c3C2=O)NC(=O)/C(C)=C\C=C\[C@H](C)[C@H](O)[C@@H](C)[C@@H](O)[C@@H](C)[C@H](OC(C)=O)[C@@H]1C [RIFAMPIN],1.66,0.008,> 1,0.016,0.004,> 1,–,0.004,> 1,0.008,> 1,0.005,1
CCCc1cn(CCN2Cc3c4c(O)c5c(O)c(C)c6c(c5c3O)C(=O)[C@@](C)(O/C=C/[C@H](OC)[C@@H](C)[C@@H](OC(C)=O)[C@H](C)[C@H](O)[C@H](C)[C@@H](O)[C@@H](C)/C=C/C=C(/C)C2=N4)O6)nn1,3.13,1,> 1,> 1,> 1,> 1,< 10,> 1,> 1,> 1,> 1,1,> 1
CCCCCc1cn(CCCNCc2c3c(O)c4c(O)c(C)c5c(c4c2O)C(=O)[C@@](C)(O/C=C/[C@H](OC)[C@@H](C)[C@@H](OC(C)=O)[C@H](C)[C@H](O)[C@H](C)[C@@H](O)[C@@H](C)/C=C/C=C(/C)C(=O)N3)O5)nn1,3.42,1,> 1,> 1,0.5,> 1,< 10,0.5,> 1,1,> 1,0.5,> 1
CCCc1cn(CCNCc2c3c(O)c4c(O)c(C)c5c(c4c2O)C(=O)[C@@](C)(O/C=C/[C@H](OC)[C@@H](C)[C@@H](OC(C)=O)[C@H](C)[C@H](O)[C@H](C)[C@@H](O)[C@@H](C)/C=C/C=C(/C)C(=O)N3)O5)nn1,2.14,1,> 1,> 1,0.5,> 1,< 10,0.5,> 1,1,> 1,1,> 1
CO[C@H]1/C=C/O[C@@]2(C)Oc3c(C)c(O)c4c(O)c(c(CNCc5cn(CN6C(=O)c7ccccc7C6=O)nn5)c(O)c4c3C2=O)NC(=O)/C(C)=C\C=C\[C@H](C)[C@H](O)[C@@H](C)[C@@H](O)[C@@H](C)[C@H](OC(C)=O)[C@@H]1C,2.24,1,> 1,> 1,0.5,> 1,< 10,0.5,> 1,1,> 1,0.25,> 1
CO[C@H]1/C=C/O[C@@]2(C)Oc3c(C)c(O)c4c(O)c(c(CNCCCN5CCN(CCCNCc6c7c(O)c8c(O)c(C)c9c(c8c6O)C(=O)[C@@](C)(O/C=C/[C@H](OC)[C@@H](C)[C@@H](OC(C)=O)[C@H](C)[C@H](O)[C@H](C)[C@@H](O)[C@@H](C)/C=C/C=C(/C)C(=O)N7)O9)CC5)c(O)c4c3C2=O)NC(=O)/C(C)=C\C=C\[C@H](C)[C@H](O)[C@@H](C)[C@@H](O)[C@@H](C)[C@H](OC(C)=O)[C@@H]1C,3.83,> 1,> 1,> 1,> 1,> 1,< 10,> 1,> 1,> 1,> 1,> 1,> 1
CO[C@H]1/C=C/O[C@@]2(C)Oc3c(C)c(O)c4c(O)c(c(CNCCN5CCCC5)c(O)c4c3C2=O)NC(=O)/C(C)=C\C=C\[C@H](C)[C@H](O)[C@@H](C)[C@@H](O)[C@@H](C)[C@H](OC(C)=O)[C@@H]1C,1.55,1,1,1,0.5,1,240,0.5,1,1,1,0.5,1
CO[C@H]1/C=C/O[C@@]2(C)Oc3c(C)c(O)c4c(O)c(c(CNCCN(C)C)c(O)c4c3C2=O)NC(=O)/C(C)=C\C=C\[C@H](C)[C@H](O)[C@@H](C)[C@@H](O)[C@@H](C)[C@H](OC(C)=O)[C@@H]1C,1.48,1,> 1,> 1,0.5,> 1,320,0.5,> 1,1,> 1,> 1,> 1
CO[C@H]1/C=C/O[C@@]2(C)Oc3c(C)c(O)c4c(O)c(c(CNCCCn5ccnc5)c(O)c4c3C2=O)NC(=O)/C(C)=C\C=C\[C@H](C)[C@H](O)[C@@H](C)[C@@H](O)[C@@H](C)[C@H](OC(C)=O)[C@@H]1C,1.78,0.5,> 1,1,0.5,> 1,330,0.25,> 1,0.5,> 1,1,> 1
CO[C@H]1/C=C/O[C@@]2(C)Oc3c(C)c(O)c4c(O)c(c(C=O)c(O)c4c3C2=O)NC(=O)/C(C)=C\C=C\[C@H](C)[C@H](O)[C@@H](C)[C@@H](O)[C@@H](C)[C@H](OC(C)=O)[C@@H]1C,1.71,> 1,> 1,> 1,> 1,> 1,100,> 1,> 1,> 1,> 1,> 1,> 1
